The nature of series [1]: Drug level in aqueous humor of pigmented male Dutch-belted rabbit treated with 2 x 25 uL topical dose of formulated compound in each eye and measured 4 hrs post dose by LC-MS/MS method. The series is classed as ADME, tissue-based, Oryctolagus cuniculus. The conditions noted are these: in vivo, topical_or_ocular.
A further series deals with Oryctolagus cuniculus. Put plainly: Reduction in intraocular pressure in pigmented male Dutch-belted rabbit assessed as intraocular pressure level at trough treated with 2% 2 x 25 uL topical dose of formulated compound in right eye and measured after 1 to 2 hrs by non-contact tonometry. The series is classed as functional.
Series [2] is described as follows: Drug level in iris ciliary body of pigmented male Dutch-belted rabbit treated with 2 x 25 uL topical dose of formulated compound in each eye and measured 4 hrs post dose by LC-MS/MS method. The series is classed as ADME, tissue-based, Oryctolagus cuniculus. The conditions noted are these: in vivo, topical_or_ocular.
Series [3] in a line: Drug level in aqueous humor of pigmented male Dutch-belted rabbit assessed as compound formation treated with 2 x 25 uL topical dose of formulated (4S,6S)-4-Ethylamino-6-(3-nitrooxy-propyl)-7,7-dioxo-4,5,6,7-tetrahydro-7lambda6-thieno[2,3-b]thiopyran-2-sulfonic acid amide in each eye and measured 4 hrs post dose by LC-MS/MS method. As to conditions: in vivo, topical_or_ocular; call rule not given here. It counts as ADME, tissue-based, Oryctolagus cuniculus.

Series [4] can be described thus: Drug level in iris ciliary body of pigmented male Dutch-belted rabbit assessed as compound formation treated with 2 x 25 uL topical dose of formulated (4S,6S)-4-Ethylamino-6-(3-nitrooxy-propyl)-7,7-dioxo-4,5,6,7-tetrahydro-7lambda6-thieno[2,3-b]thiopyran-2-sulfonic acid amide in each eye and measured 4 hrs post dose by LC-MS/MS method. The conditions noted are these: in vivo, topical_or_ocular. The series is classed as ADME, tissue-based, Oryctolagus cuniculus.

In series [5] the test system is Cynomolgus monkey. Put plainly: Reduction in intraocular pressure unilaterally lasered ocular hypertensive cynomolgus monkey treated with 2% 2 x 25 uL topical dose of formulated compound in right eye and measured after 2 hrs by ocular hypertension primate tonometry. It counts as functional, Macaca fascicularis.
A short description of series [6]: Drug level in iris ciliary body of pigmented male Dutch-belted rabbit assessed as compound formation treated with 2 x 25 uL topical dose of formulated (R)-3-(4-(Ethylamino)-1,1-dioxido-6-sulfamoyl-3,4-dihydro-2Hthieno[3,2-e][1,2]thiazin-2-yl)propyl nitrate in each eye and measured 4 hrs post dose by LC-MS/MS method. It counts as ADME, tissue-based, Oryctolagus cuniculus. As to conditions: in vivo, topical_or_ocular.

Series [7] can be described thus: Drug level in aqueous humor of pigmented male Dutch-belted rabbit assessed as compound formation treated with 2 x 25 uL topical dose of formulated (R)-3-(4-(Ethylamino)-1,1-dioxido-6-sulfamoyl-3,4-dihydro-2Hthieno[3,2-e][1,2]thiazin-2-yl)propyl nitrate in each eye and measured 4 hrs post dose by LC-MS/MS method. The series is classed as ADME, tissue-based, Oryctolagus cuniculus. As to conditions: in vivo, topical_or_ocular.

In series [8] the test system is Cynomolgus monkey. Description: Reduction in intraocular pressure unilaterally lasered ocular hypertensive cynomolgus monkey treated with 1% 2 x 25 uL topical dose of formulated compound in right eye and measured after 2 hrs by ocular hypertension primate tonometry. It counts as functional, Macaca fascicularis.

Each structure is given as a SMILES string. In brackets after ≈: the same amount, converted by molar mass.

Description for physchem: Solubility of the compound

`CCN[C@H]1C[C@H](CCCO[N+](=O)[O-])S(=O)(=O)c2sc(S(N)(=O)=O)cc21`: the Drug uptake result in [1] and in series [2] was “Active” each time. Also, in the series with Oryctolagus cuniculus, the Activity stood at 5 mmHg. The solubility (as a rule, the concentration that dissolves in the medium under given conditions) in “physchem” is 11300 µg/mL (≈ 27.3 mM).

As for `CCN[C@H]1C[C@H](CCCO)S(=O)(=O)c2sc(S(N)(=O)=O)cc21`, the Drug metabolism result in series [3] and in series [4] was “metabolite_detected” in each case.

Regarding `CCN[C@H]1CN(CCCO[N+](=O)[O-])S(=O)(=O)c2sc(S(N)(=O)=O)cc21`, the Drug uptake result in [1] and in series [2] was “Active” throughout. In addition, the Activity in the series with Oryctolagus cuniculus was determined as 5 mmHg; in the series on Cynomolgus monkey [5], 10.5 mmHg. This compound gave a solubility in “physchem” of 2200 µg/mL (≈ 5.31 mM).

Turning to `CCN[C@H]1CN(CCCO)S(=O)(=O)c2sc(S(N)(=O)=O)cc21`, the Drug metabolism result in series [6] and in [7] was “metabolite_detected” in each case.

With `CCN[C@H]1CN(CCCOC)S(=O)(=O)c2sc(S(N)(=O)=O)cc21` [BRINZOLAMIDE], in the series “physchem”, the solubility turned out to be 500 µg/mL (≈ 1.3 mM). The Activity in the series with Cynomolgus monkey [8] turned out to be 2 mmHg.

Values taken from ChEMBL document CHEMBL3414464, “Design, synthesis, and evaluation of NO-donor containing carbonic anhydrase inhibitors to lower intraocular pressure” (J Med Chem, 2015).
